Data published in PubChem BioAssay (NCI).
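A five-concentration, 48-hour dose response in 96-well plates underlies each endpoint, interpolated linearly between surrounding concentrations. Abbreviation: GI50, concentration required for 50% inhibition of growth. TGI denotes the concentration required for complete inhibition of growth.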

Experiments:
Assay in all cases: NCI anticancer screen, dose series, 48 h
COLO 205 colon = tested on: COLO 205 colon
A549 NSCLC = tested on: A549 NSCLC
SK-OV-3 ovarian = tested on: SK-OV-3 ovarian
HCC-2998 colon = tested on: HCC-2998 colon
UACC-257 melanoma = tested on: UACC-257 melanoma
SF-539 CNS = tested on: SF-539 CNS
EKVX NSCLC = tested on: EKVX NSCLC
UO-31 renal = tested on: UO-31 renal
IGROV1 ovarian = tested on: IGROV1 ovarian
OVCAR-3 ovarian = tested on: OVCAR-3 ovarian

Structure (SMILES) | GI50 (COLO 205 colon) | TGI (COLO 205 colon) | GI50 (A549 NSCLC) | TGI (A549 NSCLC) | GI50 (SK-OV-3 ovarian) | TGI (SK-OV-3 ovarian) | GI50 (HCC-2998 colon) | TGI (HCC-2998 colon) | GI50 (UACC-257 melanoma) | TGI (UACC-257 melanoma) | GI50 (SF-539 CNS) | TGI (SF-539 CNS) | GI50 (EKVX NSCLC) | TGI (EKVX NSCLC) | TGI (UO-31 renal) | GI50 (IGROV1 ovarian) | TGI (IGROV1 ovarian) | GI50 (OVCAR-3 ovarian) | TGI (OVCAR-3 ovarian) | GI50 (UO-31 renal)
Nc1ccn(C2CCC(CO)O2)c(=O)n1 (centres undefined) | > 1000 µM | > 1000 µM | > 1000 µM | > 1000 µM | > 1000 µM | > 1000 µM | > 1000 µM | > 1000 µM | > 1000 µM | > 1000 µM | > 1000 µM | > 1000 µM | > 1000 µM | > 1000 µM | > 1000 µM | > 1000 µM | > 1000 µM | > 1000 µM | > 1000 µM | 
CCOC(=O)NC(=O)c1cn(CCCOC(=O)CCCCCCCCCCC(=O)OCCCn2cc(C(=O)NC(=O)OCC)c(=O)[nH]c2=O)c(=O)[nH]c1=O |  | > 100 µM |  | > 100 µM |  | > 100 µM |  | > 100 µM |  | > 100 µM |  | > 100 µM |  | > 100 µM | > 100 µM |  | > 100 µM |  | > 100 µM | 
CC1=CC(C/C(C)=C/COc2ccc3ccc(=O)oc3c2)OC1=O (centres undefined) |  | > 100 µM |  | > 100 µM |  | > 100 µM |  | > 100 µM |  | > 100 µM |  | > 100 µM |  | > 100 µM | > 100 µM |  | > 100 µM |  | > 100 µM | 
COc1ccc(/C=C/c2cc(OC)cc(=O)o2)cc1 |  | > 100 µM |  | > 100 µM |  | > 100 µM |  | > 100 µM |  | > 100 µM |  | 46.1 µM |  | > 100 µM | > 100 µM |  | > 100 µM |  | > 100 µM | 
CSC(C1c2ccccc2N(c2ccc(C)cc2)c2[nH]c(=O)n(C)c(=O)c21)S(=O)(=O)c1ccc(C)cc1 (centres undefined) |  | > 100 µM |  | > 100 µM |  | > 100 µM |  | > 100 µM |  | > 100 µM |  | > 100 µM |  | > 100 µM | > 100 µM |  | > 100 µM |  | > 100 µM | 
Cc1ccc(S(=O)(=O)C(C#N)c2nc3ccccc3nc2-n2ccnc2)cc1 (centres undefined) |  | > 100 µM |  | > 100 µM |  | > 100 µM |  | > 100 µM |  | > 100 µM |  | > 100 µM |  | > 100 µM | > 100 µM |  | > 100 µM |  | > 100 µM | 
Cc1c(C(=O)/C=C/c2ccccc2)[n+](=O)c2ccccc2n1[O-] |  | 29.8 µM |  | 43.2 µM |  | 42.7 µM |  | 30.2 µM |  | 31.3 µM |  | 29.7 µM |  | 29.5 µM | 34.2 µM |  | 45.2 µM |  | 30.6 µM | 
COc1c(C(C)C)cc2c3c1OC(=O)[C@@]31CCCC(C)(C)C1CC2 (some centres undefined) |  | 31.9 µM |  | 60.1 µM |  | 76.1 µM |  | > 100 µM |  | 54.1 µM |  | 44.8 µM |  | 65.3 µM | 57.8 µM |  | > 100 µM |  | 83.3 µM | 
O=C1CCC(O)=C1N=Nc1ccccc1 |  | > 100 µM |  | > 100 µM |  | > 100 µM |  | > 100 µM |  | > 100 µM |  | > 100 µM |  | > 100 µM | > 100 µM |  | > 100 µM |  | > 100 µM | 
O=C(O)[C@H](NS(=O)(=O)c1ccc([N+](=O)[O-])cc1)c1ccccc1 |  | > 100 µM |  | > 100 µM |  | > 100 µM |  | > 100 µM |  | > 100 µM |  | > 100 µM |  | > 100 µM | > 100 µM |  | > 100 µM |  | > 100 µM | 
COc1ccc(CCN2COc3c([C@@H](C)CCC=C(C)C)ccc(C)c3C2)cc1OC | 1.79 µM | 3.19 µM | 10.3 µM | 31.5 µM | 11.8 µM | 31.1 µM | 1.59 µM | 2.96 µM | 2.93 µM | 10.9 µM | 4.48 µM | 15.9 µM | 5.14 µM | 25.4 µM | 12.3 µM | 1.08 µM | 3.52 µM | 3.55 µM | 14.1 µM | 2450 nM
